According to US12569464B2, “Protein-protein interaction inducing technology” (Arvinas Operations, Inc., priority 2016, dated 2026):
Read-outs that look alike come from different tables or passages of the source.

Tests used:
c-Myc expression = experiment: c-Myc ELISA assay in 22RV1 cells; format: cell-based, human
Method: It is composed of a BRD4-binding warhead which is connected to a VHL-binding warhead by a linear connector. […] Either the inhibition of BRD4 (by binding and blocking the active site of BRD4) or the degradation of BRD4 leads to the down-regulation of the expression level of a downstream protein c-Myc. […] MD simulation of a ternary system composed of BRD4 bromodomain 1, the ligand L and the complex of VHL with EB and EC in the presence of explicit water was performed.
The connector linking the BRD-4 binding warhead and the cereblon-binding warhead was systematically probed from 2 to 8 atoms. For comparison, the parent inhibitor of BRD4 (compound JQ1) was also prepared. […] The expression level of a downstream protein c-Myc was measured. In this assay, either the inhibition of BRD4 (by binding and blocking the active site of BRD4) or the degradation of BRD4 leads to the down-regulation of the expression level of c-Myc.
The connector linking the BRD4 warhead and the VHL-binding warhead was systematically probed from 5 to 19 atoms. […] The expression level of a downstream protein c-Myc was measured. In this assay, either the inhibition of BRD4 (e.g., by binding and blocking the active site of BRD4) or the degradation of BRD4 results in the down-regulation of the expression level of c-Myc.
c-Myc ELISA Assay Protocol
22RV-1 cells were purchased from ATCC and cultured in RPMI+10% FBS media. Cells were harvested using trypsin (Gibco #25200-114), counted and seeded at 30,000 cells/well at a volume of 75 μL/well in RPMI+10% FBS media in 96-well plates. The cells were dosed with compounds diluted in 0.1% DMSO, incubated for 18h then washed and lysed in 50 uL RIPA buffer (50 mM Tris pH8, 150 mM NaCl, 1% Tx-100, 0.1% SDS, 0.5% sodium deoxycholate) supplemented with protease and phosphatase inhibitors. The lysates were clarified at 4000 rpm at 4° C. for 10 minutes then aliquots were added into a 96-well ELISA plate of Novex Human c-Myc ELISA kit from Life Technologies Catalog #KHO2041. 50 µL of c-Myc Detection antibody was added into every well, the plates incubated at room temperature for 3 hrs, then washed with ELISA wash buffer. 100 μL of the anti-rabbit IgG-HRP secondary antibody was added to each well and incubated at room temperature for 30 minutes. The plates were washed with ELISA wash buffer, 100 μL TMB added to each well, and then monitored every 5 minutes for a color change. 100 μL of stop solution is added and the plates read at 450 nm.

AR = target: T1, AR (Homo sapiens, UniProt P10275+P40337, T878A); experiment: AR degradation in LNCaP cells (androgen receptor ELISA); format: cell-based; conditions: LNCaP cells; for DC50: read-out: AR degradation potency DC50
T1 construct: degradation Dmax of AR in LNCaP cells; endogenous in cells; host or cells: LNCaP
Method: The connector linking the AR-binding warhead and the VHL-binding warhead was systematically probed from 4 to 23 atoms. The AR degradation potency DC50 and the maximum percentage of degradation Dmax of AR in LNCaP cells were measured for each of these compounds. […] The binary binding potency with respect to AR was also measured for some of the compounds by the cell-based ligand (R1881) displacement assay. The ratio α between the AR-binding potency and the degradation potency are calculated when it is possible.
Androgen Receptor ELISA Assay
The protocols used with VCaP cells are described below. The androgen receptor ELISA assay was performed using PathScan AR ELISA (Cell Signaling Catalog #12850) according to the following assay steps: […]

[1] = 22RV1 cells, BRD4-cereblon series, Table 2
[2] = 22RV1 cells, BRD4-cereblon series, Table 2, read-out: c-Myc expression inhibition IC50
[3] = 22RV1 cells, BRD4-VHL series, Table 3
[4] = 22RV1 cells, BRD4-VHL series, Table 3, read-out: c-Myc expression inhibition IC50
[5] = 22RV1 cells, connector composition changes, Table 4
[6] = 22RV1 cells, connector composition changes, Table 4, read-out: c-Myc expression inhibition IC50

T1 sequence (Q15370 whole entry): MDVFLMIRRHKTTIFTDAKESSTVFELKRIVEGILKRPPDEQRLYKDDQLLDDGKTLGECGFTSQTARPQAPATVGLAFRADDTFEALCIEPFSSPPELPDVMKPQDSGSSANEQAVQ
T1 sequence (P40337 whole entry): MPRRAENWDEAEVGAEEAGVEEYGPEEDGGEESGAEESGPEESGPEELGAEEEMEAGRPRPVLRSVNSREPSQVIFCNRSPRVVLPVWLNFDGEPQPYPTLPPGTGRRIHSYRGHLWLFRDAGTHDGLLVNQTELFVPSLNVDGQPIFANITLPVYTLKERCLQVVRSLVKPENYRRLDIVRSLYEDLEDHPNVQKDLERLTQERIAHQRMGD
T1 sequence (P10275 whole entry T878A): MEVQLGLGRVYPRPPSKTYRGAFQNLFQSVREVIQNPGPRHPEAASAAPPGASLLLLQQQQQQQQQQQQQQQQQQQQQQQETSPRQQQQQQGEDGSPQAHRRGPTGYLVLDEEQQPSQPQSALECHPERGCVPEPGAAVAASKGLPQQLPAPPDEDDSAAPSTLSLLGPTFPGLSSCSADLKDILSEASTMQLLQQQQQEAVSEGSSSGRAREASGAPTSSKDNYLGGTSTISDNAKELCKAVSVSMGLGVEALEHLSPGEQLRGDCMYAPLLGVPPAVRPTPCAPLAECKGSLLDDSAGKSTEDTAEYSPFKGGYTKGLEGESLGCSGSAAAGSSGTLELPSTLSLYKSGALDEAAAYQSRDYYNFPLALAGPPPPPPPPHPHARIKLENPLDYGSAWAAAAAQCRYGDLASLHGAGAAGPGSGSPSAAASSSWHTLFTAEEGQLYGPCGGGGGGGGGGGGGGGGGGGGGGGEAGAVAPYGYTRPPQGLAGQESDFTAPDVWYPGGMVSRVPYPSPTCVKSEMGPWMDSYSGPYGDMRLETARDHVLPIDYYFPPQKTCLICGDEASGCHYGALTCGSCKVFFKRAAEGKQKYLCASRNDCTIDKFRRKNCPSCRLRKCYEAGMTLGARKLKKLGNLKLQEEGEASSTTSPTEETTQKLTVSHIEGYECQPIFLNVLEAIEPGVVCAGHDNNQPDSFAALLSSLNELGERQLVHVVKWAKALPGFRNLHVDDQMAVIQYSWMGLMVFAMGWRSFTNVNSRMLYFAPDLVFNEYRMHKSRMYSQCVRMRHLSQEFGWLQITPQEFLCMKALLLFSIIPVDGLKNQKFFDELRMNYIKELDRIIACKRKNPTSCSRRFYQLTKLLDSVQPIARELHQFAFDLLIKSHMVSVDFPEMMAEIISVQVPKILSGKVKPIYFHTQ
T1 sequence (Q15369 whole entry, further chain): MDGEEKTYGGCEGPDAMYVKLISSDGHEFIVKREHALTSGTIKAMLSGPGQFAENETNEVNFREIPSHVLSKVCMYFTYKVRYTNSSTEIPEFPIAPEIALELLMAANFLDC

SMILES: Cc1sc2c(c1C)C(c1ccc(Cl)cc1)=NC(CC(=O)NCCNc1cccc3c1C(=O)N(C1CCC(=O)NC1=O)C3=O)c1nnc(C)n1-2 (mixture of isomers) [Compound 19]
- maximum inhibition Imax (c-Myc expression; [1]): 96%
- IC50 (c-Myc expression; [2]): 187 nM

SMILES: Cc1sc2c(c1C)C(c1ccc(Cl)cc1)=NC(CC(=O)NCCCNc1cccc3c1C(=O)N(C1CCC(=O)NC1=O)C3=O)c1nnc(C)n1-2 (mixture of isomers) [Compound 20]
- maximum inhibition Imax (c-Myc expression; [1]): 93%
- IC50 (c-Myc expression; [2]): 123 nM

SMILES: Cc1sc2c(c1C)C(c1ccc(Cl)cc1)=NC(CC(=O)NCCCCNc1cccc3c1C(=O)N(C1CCC(=O)NC1=O)C3=O)c1nnc(C)n1-2 (mixture of isomers) [Compound 21]
- maximum inhibition Imax (c-Myc expression; [1]): 88%
- IC50 (c-Myc expression; [2]): 250 nM

SMILES: Cc1sc2c(c1C)C(c1ccc(Cl)cc1)=NC(CC(=O)NCCCCCNc1cccc3c1C(=O)N(C1CCC(=O)NC1=O)C3=O)c1nnc(C)n1-2 (mixture of isomers) [Compound 22]
- maximum inhibition Imax (c-Myc expression; [1]): 100%
- IC50 (c-Myc expression; [2]): 3.79 nM

SMILES: Cc1sc2c(c1C)C(c1ccc(Cl)cc1)=NC(CC(=O)NCCOCCNc1cccc3c1C(=O)N(C1CCC(=O)NC1=O)C3=O)c1nnc(C)n1-2 (mixture of isomers) [Compound 23]
- maximum inhibition Imax (c-Myc expression; [1]): 100%
- IC50 (c-Myc expression; [2]): 0.682 nM

SMILES: Cc1sc2c(c1C)C(c1ccc(Cl)cc1)=NC(CC(=O)NCCOCCOCCNc1cccc3c1C(=O)N(C1CCC(=O)NC1=O)C3=O)c1nnc(C)n1-2 (mixture of isomers) [Compound 25]
- maximum inhibition Imax (c-Myc expression; [1]): 100%
- IC50 (c-Myc expression; [2]): 13 nM

SMILES: Cc1ncsc1-c1ccc(CNC(=O)[C@@H]2C[C@@H](O)CN2C(=O)[C@@H](NC(=O)CCOCCOc2ccc(N3C(=S)N(c4ccc(C#N)c(C(F)(F)F)c4)C(=O)C3(C)C)cc2)C(C)(C)C)cc1 [Compound 3]
- maximum AR degradation Dmax (AR): 56%

SMILES: Cc1ncsc1-c1ccc(CNC(=O)[C@@H]2C[C@@H](O)CN2C(=O)[C@@H](NC(=O)CCOCCCOc2ccc(N3C(=S)N(c4ccc(C#N)c(C(F)(F)F)c4)C(=O)C3(C)C)cc2)C(C)(C)C)cc1 [Compound 4]
- maximum AR degradation Dmax (AR): 18%
- DC50 (AR): > 3000 nM

SMILES: Cc1ncsc1-c1ccc(CNC(=O)[C@@H]2C[C@@H](O)CN2C(=O)[C@@H](NC(=O)COCCOCCCOc2ccc(N3C(=S)N(c4ccc(C#N)c(C(F)(F)F)c4)C(=O)C3(C)C)cc2)C(C)(C)C)cc1 [Compound 6]
- maximum AR degradation Dmax (AR): 54%
- DC50 (AR): 72 nM

SMILES: Cc1ncsc1-c1ccc(CNC(=O)[C@@H]2C[C@@H](O)CN2C(=O)[C@@H](NC(=O)COCCCOCCCOc2ccc(N3C(=S)N(c4ccc(C#N)c(C(F)(F)F)c4)C(=O)C3(C)C)cc2)C(C)(C)C)cc1 [Compound 7]
- maximum AR degradation Dmax (AR): 56%
- DC50 (AR): 390 nM

SMILES: Cc1ncsc1-c1ccc(CNC(=O)[C@@H]2C[C@@H](O)CN2C(=O)[C@@H](NC(=O)COCCCNC(=O)C[C@@H]2N=C(c3ccc(Cl)cc3)c3c(sc(C)c3C)-n3c(C)nnc32)C(C)(C)C)cc1 [Compound 26]
- maximum inhibition Imax (c-Myc expression; [3]): 98%
- IC50 (c-Myc expression; [4]): 95 nM

SMILES: Cc1ncsc1-c1ccc(CNC(=O)[C@@H]2C[C@@H](O)CN2C(=O)[C@@H](NC(=O)COCCCCNC(=O)C[C@@H]2N=C(c3ccc(Cl)cc3)c3c(sc(C)c3C)-n3c(C)nnc32)C(C)(C)C)cc1 [Compound 27]
- maximum inhibition Imax (c-Myc expression; [3]): 100%
- IC50 (c-Myc expression; [4]): 78 nM

SMILES: Cc1ncsc1-c1ccc(CNC(=O)[C@@H]2C[C@@H](O)CN2C(=O)[C@@H](NC(=O)COCCOCCNC(=O)C[C@@H]2N=C(c3ccc(Cl)cc3)c3c(sc(C)c3C)-n3c(C)nnc32)C(C)(C)C)cc1 [Compound 28]
- maximum inhibition Imax (c-Myc expression; [3]): 94%
- IC50 (c-Myc expression; [4]): 80.5 nM

SMILES: Cc1ncsc1-c1ccc(CNC(=O)[C@@H]2C[C@@H](O)CN2C(=O)[C@@H](NC(=O)COCCCOCCNC(=O)C[C@@H]2N=C(c3ccc(Cl)cc3)c3c(sc(C)c3C)-n3c(C)nnc32)C(C)(C)C)cc1 [Compound 29]
- maximum inhibition Imax (c-Myc expression; [3]): 97%
- IC50 (c-Myc expression; [4]): 0.16 nM
- maximum inhibition Imax (c-Myc expression; [5]): 97%
- IC50 (c-Myc expression; [6]): 0.16 nM

SMILES: Cc1ncsc1-c1ccc(CNC(=O)[C@@H]2C[C@@H](O)CN2C(=O)[C@@H](NC(=O)COCCCOCCCNC(=O)C[C@@H]2N=C(c3ccc(Cl)cc3)c3c(sc(C)c3C)-n3c(C)nnc32)C(C)(C)C)cc1 [Compound 30]
- maximum inhibition Imax (c-Myc expression; [3]): 100%
- IC50 (c-Myc expression; [4]): 19.4 nM

SMILES: Cc1ncsc1-c1ccc(CNC(=O)[C@@H]2C[C@@H](O)CN2C(=O)[C@@H](NC(=O)COCCOCCOCCNC(=O)C[C@@H]2N=C(c3ccc(Cl)cc3)c3c(sc(C)c3C)-n3c(C)nnc32)C(C)(C)C)cc1 [Compound 31]
- maximum inhibition Imax (c-Myc expression; [3]): 99.3%
- IC50 (c-Myc expression; [4]): 1.22 nM

SMILES: Cc1ncsc1-c1ccc(CNC(=O)[C@@H]2C[C@@H](O)CN2C(=O)[C@@H](NC(=O)COCCCOCCCCCNC(=O)C[C@@H]2N=C(c3ccc(Cl)cc3)c3c(sc(C)c3C)-n3c(C)nnc32)C(C)(C)C)cc1 [Compound 32]
- maximum inhibition Imax (c-Myc expression; [3]): 98%
- IC50 (c-Myc expression; [4]): 0.86 nM

SMILES: Cc1ncsc1-c1ccc(CNC(=O)[C@@H]2C[C@@H](O)CN2C(=O)[C@@H](NC(=O)COCCOCCOCCCCNC(=O)C[C@@H]2N=C(c3ccc(Cl)cc3)c3c(sc(C)c3C)-n3c(C)nnc32)C(C)(C)C)cc1 [Compound 33]
- maximum inhibition Imax (c-Myc expression; [3]): 97%
- IC50 (c-Myc expression; [4]): 5 nM

SMILES: Cc1ncsc1-c1ccc(CNC(=O)[C@@H]2C[C@@H](O)CN2C(=O)[C@@H](NC(=O)COCCOCCOCCOCCNC(=O)C[C@@H]2N=C(c3ccc(Cl)cc3)c3c(sc(C)c3C)-n3c(C)nnc32)C(C)(C)C)cc1 [Compound 34]
- maximum inhibition Imax (c-Myc expression; [3]): 94%
- IC50 (c-Myc expression; [4]): 34 nM

SMILES: Cc1ncsc1-c1ccc(CNC(=O)[C@@H]2C[C@@H](O)CN2C(=O)[C@@H](NC(=O)COCCOCCOCCCCOCCOCCNC(=O)C[C@@H]2N=C(c3ccc(Cl)cc3)c3c(sc(C)c3C)-n3c(C)nnc32)C(C)(C)C)cc1 [Compound 37]
- maximum inhibition Imax (c-Myc expression; [3]): 96.4%
- IC50 (c-Myc expression; [4]): 202 nM

SMILES: Cc1ncsc1-c1ccc(CNC(=O)[C@@H]2C[C@@H](O)CN2C(=O)[C@@H](NC(=O)COCCOCCOCCOCCOCCOCCNC(=O)C[C@@H]2N=C(c3ccc(Cl)cc3)c3c(sc(C)c3C)-n3c(C)nnc32)C(C)(C)C)cc1 [Compound 38]
- maximum inhibition Imax (c-Myc expression; [3]): 62.2%
- IC50 (c-Myc expression; [4]): 707 nM

SMILES: Cc1ncsc1-c1ccc(CNC(=O)[C@@H]2C[C@@H](O)CN2C(=O)[C@@H](NC(=O)CCCCCCCCNC(=O)C[C@@H]2N=C(c3ccc(Cl)cc3)c3c(sc(C)c3C)-n3c(C)nnc32)C(C)(C)C)cc1 [Compound 39]
- maximum inhibition Imax (c-Myc expression; [5]): 95.4%
- IC50 (c-Myc expression; [6]): 10.2 nM

SMILES: Cc1ncsc1-c1ccc(CNC(=O)[C@@H]2C[C@@H](O)CN2C(=O)[C@@H](NC(=O)COCCCSCCNC(=O)C[C@@H]2N=C(c3ccc(Cl)cc3)c3c(sc(C)c3C)-n3c(C)nnc32)C(C)(C)C)cc1 [Compound 40]
- maximum inhibition Imax (c-Myc expression; [5]): 99%
- IC50 (c-Myc expression; [6]): 20.9 nM

SMILES: Cc1ncsc1-c1ccc(CNC(=O)[C@@H]2C[C@@H](O)CN2C(=O)[C@@H](NC(=O)COCCCCCCNC(=O)C[C@@H]2N=C(c3ccc(Cl)cc3)c3c(sc(C)c3C)-n3c(C)nnc32)C(C)(C)C)cc1 [Compound 41]
- maximum inhibition Imax (c-Myc expression; [5]): 100%
- IC50 (c-Myc expression; [6]): 25.7 nM

SMILES: Cc1ncsc1-c1ccc(CNC(=O)[C@@H]2C[C@@H](O)CN2C(=O)[C@@H](NC(=O)COCCCS(=O)(=O)CCNC(=O)C[C@@H]2N=C(c3ccc(Cl)cc3)c3c(sc(C)c3C)-n3c(C)nnc32)C(C)(C)C)cc1 [Compound 42]
- maximum inhibition Imax (c-Myc expression; [5]): 88.3%
- IC50 (c-Myc expression; [6]): 122 nM

SMILES: Cc1sc2c(c1C)C(c1ccc(Cl)cc1)=N[C@@H](CC(=O)OC(C)(C)C)c1nnc(C)n1-2 [JQ1, reference compound]
- maximum inhibition Imax (c-Myc expression; [1]): 93%
- IC50 (c-Myc expression; Homo sapiens, 22Rv1, read-out: c-Myc expression IC50): 101 nM
- IC50 (c-Myc expression; Homo sapiens, 22Rv1, read-out: c-Myc expression inhibition IC50): 101 nM
